Earlier results, collected in US20240307316A1, “ANTIOXIDANT AND OXYGEN-RELEASING LIGNIN COMPOSITES TO ACCELERATE WOUND HEALING” (Board of Supervisors of Louisiana State University and …, priority 2023, published 2024).
Like-named read-outs stand apart in the source and are kept apart here.

Columns and labels:
[1] = tested on: 3T3 FBs

Row | Compound | concentrations exhibiting cytotoxicity [1] | solubility limit | solubility (at 20° C.) | solubility (at 18° C.)
1 | [Ca+2].[O-][O-] [CaO2, Calcium peroxide] | higher than 10 mg/mL | 1650 µg/mL | 1650 µg/mL | –
2 | [Mg+2].[O-][O-] [MgO2, magnesium peroxide] | – | – | – | 860 µg/mL
